From PubChem BioAssay AID248 (DTP/NCI, 2004)
Values joined by “and” are separate entries in the source; they are usually repeats but may differ in a detail not shown here. Equal values may be shown once. Inconclusive results and toxic doses are left out. Cut-off read from the data, not from the text of the source: active = T/C of 150% or more; inactive = T/C below 125%.

Tested on: L1210 leukemia ip in BDF1 mice, survival T/C
Test: NCI In Vivo Anticancer Drug Screen. Data for tumor model L1210 Leukemia (intraperitoneal) in B6D2F1 (BDF1) mice
Conditions: endpoint: mean survival time, higher = longer survival
Summary of the method: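 Antitumor effect is assessed in tumor-bearing animals. Survival in the compound arm is compared with a vehicle-dosed control arm and expressed as their quotient.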

[1] = dose: 100.0 mg/kg/injection, schedule: Q01DX009 (ip), vehicle: Klucel (hydroxypropylcellulose) (HPC)
[2] = dose: 100.0 mg/kg/injection, schedule: Q01DX009 (ip), vehicle: saline
[3] = dose: 100.0 mg/kg/injection, schedule: Q04DX002 (ip), vehicle: Klucel (hydroxypropylcellulose) (HPC)
[4] = dose: 100.0 mg/kg/injection, schedule: Q04DX003 (ip), vehicle: Klucel (hydroxypropylcellulose) (HPC)
[5] = dose: 200.0 mg/kg/injection, schedule: Q01DX009 (ip), vehicle: Klucel (hydroxypropylcellulose) (HPC)
[6] = dose: 200.0 mg/kg/injection, schedule: Q04DX002 (ip), vehicle: Klucel (hydroxypropylcellulose) (HPC)
[7] = dose: 200.0 mg/kg/injection, schedule: Q04DX003 (ip), vehicle: Klucel (hydroxypropylcellulose) (HPC)
[8] = dose: 400.0 mg/kg/injection, schedule: Q04DX002 (ip), vehicle: Klucel (hydroxypropylcellulose) (HPC)
[9] = dose: 25.0 mg/kg/injection, schedule: Q04DX003 (ip), vehicle: saline
[10] = dose: 50.0 mg/kg/injection, schedule: Q04DX003 (ip), vehicle: saline
[11] = dose: 100.0 mg/kg/injection, schedule: Q04DX003 (ip), vehicle: saline
[12] = dose: 50.0 mg/kg/injection, schedule: Q01DX009 (ip), vehicle: Klucel (hydroxypropylcellulose) (HPC)
[13] = dose: 100.0 mg/kg/injection, schedule: Q01DX009 (ip), vehicle: saline with Tween-80
[14] = dose: 100.0 mg/kg/injection, schedule: Q04DX003 (ip), vehicle: saline with Tween-80
[15] = dose: 200.0 mg/kg/injection, schedule: Q04DX003 (ip), vehicle: saline with Tween-80
[16] = dose: 400.0 mg/kg/injection, schedule: Q04DX003 (ip), vehicle: saline with Tween-80
[17] = dose: 200.0 mg/kg/injection, schedule: Q01DX009 (ip), vehicle: saline with Tween-80
[18] = dose: 400.0 mg/kg/injection, schedule: Q01DX009 (ip), vehicle: saline with Tween-80
[19] = dose: 50.0 mg/kg/injection, schedule: Q01DX001 (ip), vehicle: carboxymethylcellulose (CMC)
[20] = dose: 100.0 mg/kg/injection, schedule: Q01DX001 (ip), vehicle: carboxymethylcellulose (CMC)
[21] = dose: 200.0 mg/kg/injection, schedule: Q01DX001 (ip), vehicle: carboxymethylcellulose (CMC)
[22] = dose: 400.0 mg/kg/injection, schedule: Q01DX001 (ip), vehicle: carboxymethylcellulose (CMC)
[23] = dose: 100.0 mg/kg/injection, schedule: Q01DX001 (ip), vehicle: saline with Tween-80
[24] = dose: 200.0 mg/kg/injection, schedule: Q01DX001 (ip), vehicle: saline with Tween-80
[25] = dose: 400.0 mg/kg/injection, schedule: Q01DX001 (ip), vehicle: saline with Tween-80

Measured: T/C

O=C(Nc1ccc(Nc2ccccc2)cc1)Nc1cccc2ccccc12
inactive: dose: 100.0 mg/kg/injection, schedule: Q01DX001 (ip), vehicle: Klucel (hydroxypropylcellulose) (HPC) 97 % of control | [1] 100 % of control | [2] 100 % of control | [3] 98 % of control and 105 % of control | [4] 97 % of control | dose: 200.0 mg/kg/injection, schedule: Q01DX001 (ip), vehicle: Klucel (hydroxypropylcellulose) (HPC) 92 % of control | [5] 90 % of control | dose: 200.0 mg/kg/injection, schedule: Q01DX009 (ip), vehicle: saline 100 % of control | [6] 93 % of control and 94 % of control | [7] 92 % of control | dose: 400.0 mg/kg/injection, schedule: Q01DX001 (ip), vehicle: Klucel (hydroxypropylcellulose) (HPC) 95 % of control | dose: 400.0 mg/kg/injection, schedule: Q01DX009 (ip), vehicle: Klucel (hydroxypropylcellulose) (HPC) 100 % of control | dose: 400.0 mg/kg/injection, schedule: Q01DX009 (ip), vehicle: saline 88 % of control | [8] 98 % of control and 102 % of control

O=c1[nH]ncc2ccc([N+](=O)[O-])cc12
inactive: dose: 75.0 mg/kg/injection, schedule: Q01DX001 (ip), vehicle: other 103 % of control | dose: 150.0 mg/kg/injection, schedule: Q01DX001 (ip), vehicle: other 101 % of control

CCN(CC)Cc1ccccn1
inactive: [9] 102 % of control | [10] 107 % of control | [11] 96 % of control

C#CCCCCC#C
inactive: [12] 98 % of control | [1] 106 % of control | [4] 98 % of control | [5] 97 % of control | [7] 91 % of control | dose: 400.0 mg/kg/injection, schedule: Q04DX003 (ip), vehicle: Klucel (hydroxypropylcellulose) (HPC) 86 % of control

CC(=O)C1C(=O)OC(C)=C(C(=O)O)C1=O (stereo not drawn)
inactive: dose: 50.0 mg/kg/injection, schedule: Q01DX009 (ip), vehicle: saline with Tween-80 102 % of control | [13] 100 % of control | [14] 92 % of control | [15] 103 % of control

CCOP(=O)(Oc1ccc([N+](=O)[O-])cc1)c1cccc(Cl)c1 (stereo not drawn)
inactive: dose: 5.0 mg/kg/injection, schedule: Q01DX001 (ip), vehicle: saline 102 % of control | dose: 10.0 mg/kg/injection, schedule: Q01DX001 (ip), vehicle: saline 111 % of control

O=C(O)CCc1cc([N+](=O)[O-])c(O)c([N+](=O)[O-])c1
inactive: [14] 96 % of control | [15] 101 % of control | [16] 99 % of control

CC1CC(=O)NN1 (stereo not drawn)
inactive: [13] 94 % of control | [17] 90 % of control | [18] 96 % of control

CCOC(=O)c1ccc(S(=O)(=O)N(CC)CC)cc1
inactive: [19] 89 % of control | [20] 96 % of control | [21] 91 % of control | [22] 102 % of control

COC(=O)c1ccc(N(C)CC2=Nc3c(nc(N)nc3SCc3ccccc3)NC2)cc1
inactive: [23] 97 % of control | [24] 108 % of control | [25] 101 % of control

CCOC(=N)Cc1cc(OC)c(OC)c(OC)c1
inactive: dose: 100.0 mg/kg/injection, schedule: Q04DX003 (ip), vehicle: saline sonified 100 % of control | dose: 200.0 mg/kg/injection, schedule: Q04DX003 (ip), vehicle: saline sonified 98 % of control | dose: 400.0 mg/kg/injection, schedule: Q04DX003 (ip), vehicle: saline sonified 102 % of control

CCOC(=O)Nc1c(O)cccc1N1CCOCC1
inactive: [3] 101 % of control | [6] 101 % of control | [8] 104 % of control

CCOC(=O)c1nnc(-c2ccc(C)cc2)[nH]c1=O
inactive: [12] 95 % of control | [1] 95 % of control | [5] 106 % of control

CC(=O)Nc1cc2c(cc1[N+](=O)[O-])-c1ccccc1C2O (stereo not drawn)
inactive: [9] 94 % of control | [10] 100 % of control | dose: 100.0 mg/kg/injection, schedule: Q01DX001 (ip), vehicle: saline 87 % of control | [2] 102 % of control | [14] 102 % of control | [11] 96 % of control | dose: 150.0 mg/kg/injection, schedule: Q01DX009 (ip), vehicle: saline 92 % of control | [15] 101 % of control | dose: 225.0 mg/kg/injection, schedule: Q01DX009 (ip), vehicle: saline 105 % of control | [16] 104 % of control

O=C(NNc1ccccc1OCc1ccccc1)C(F)(F)F
inactive: [23] 100 % of control | [24] 103 % of control | [25] 95 % of control

C/C=C(\C)C(=Nc1ccc(Cl)c(Cl)c1)N(C)C
inactive: dose: 222.0 mg/kg/injection, schedule: Q01DX Z (ip), vehicle: saline 102 % of control | dose: 333.0 mg/kg/injection, schedule: Q01DX Z (ip), vehicle: saline 100 % of control | dose: 500.0 mg/kg/injection, schedule: Q01DX Z (ip), vehicle: saline 118 % of control

CCOC(=O)c1ccc(NC(=O)Nc2ccc(SC)cc2)cc1N(CC)CC
inactive: [13] 104 % of control | [17] 94 % of control | [18] 92 % of control

c1ccc([P+](c2ccccc2)(c2ccccc2)C2CCC2)cc1
inactive: dose: 9.4 mg/kg/injection, schedule: Q01DX009 (ip), vehicle: saline with Tween-80 121 % of control | dose: 18.8 mg/kg/injection, schedule: Q01DX009 (ip), vehicle: saline with Tween-80 88 % of control

COc1ccc(C2(C=O)CN(C)CN2)cc1 (stereo not drawn)
inactive: dose: 100.0 mg/kg/injection, schedule: Q01DX001 (ip), vehicle: other 96 % of control | dose: 200.0 mg/kg/injection, schedule: Q01DX001 (ip), vehicle: other 107 % of control | dose: 400.0 mg/kg/injection, schedule: Q01DX001 (ip), vehicle: other 96 % of control

COc1cc(C2N=C(N)N=C(N)N2c2ccc(S(N)(=O)=O)cc2)cc(OC)c1OC (stereo not drawn)
inactive: dose: 75.0 mg/kg/injection, schedule: Q01DX001 (ip), vehicle: saline 93 % of control | dose: 150.0 mg/kg/injection, schedule: Q01DX001 (ip), vehicle: saline 96 % of control

CC(C)(CCl)c1ccc(C(C)(C)CCl)cc1
inactive: dose: 50.0 mg/kg/injection, schedule: Q04DX002 (ip), vehicle: Klucel (hydroxypropylcellulose) (HPC) 104 % of control | [3] 93 % of control | [6] 93 % of control

COC(=O)CCNS(=O)(=O)c1ccc(C)cc1
inactive: [19] 92 % of control | [20] 94 % of control | [21] 94 % of control | [22] 92 % of control

O=C(/C=C\c1ccc(NCc2ccc(C(=O)O)cc2)cc1)CCl
inactive: dose: 25.0 mg/kg/injection, schedule: Q04DX003 (ip), vehicle: Klucel (hydroxypropylcellulose) (HPC) 100 % of control | [19] 91 % of control | dose: 50.0 mg/kg/injection, schedule: Q04DX003 (ip), vehicle: Klucel (hydroxypropylcellulose) (HPC) 90 % of control | [4] 95 % of control | [21] 93 % of control | [22] 98 % of control

O=C1CCCCC/C1=C1\C(=O)Nc2ccc(Br)cc21
inactive: [13] 107 % of control | dose: 100.0 mg/kg/injection, schedule: Q04DX002 (ip), vehicle: saline with Tween-80 105 % of control | [17] 100 % of control | dose: 200.0 mg/kg/injection, schedule: Q04DX002 (ip), vehicle: saline with Tween-80 105 % of control | [18] 93 % of control | dose: 400.0 mg/kg/injection, schedule: Q04DX002 (ip), vehicle: saline with Tween-80 97 % of control
